pEC50: −log10 of the molar value. Structures can show the parent of a compound that is named as a salt.
tested on: Influenza A virus; assay: microbe, parasite or virus in culture; details: MDCK

Structure (SMILES) | pEC50
C1CNC2(C1)C1CC3CC(C1)CC2C3 (stereo unspecified) | 5.74
CC1(O)C2CC3CC(C2)CC1C3 (stereo unspecified) | 4.97
CC1(N)C2CC3CC(C2)CC1C3 (stereo unspecified) | > 5.70
CCCC1(N)C2CC3CC(C2)CC1C3 (stereo unspecified) | > 5.77
NC12CC3CC(CC(C3)C1)C2 [AMANTADINE HYDROCHLORIDE] | > 6.05
CCC1(N)C2CC3CC(C2)CC1C3 (stereo unspecified) | > 5.72
